From patent EP0751957B1, “PEPTIDE FRAGMENTS OF MICROBIAL STRESS PROTEINS AND PHARMACEUTICAL COMPOSITION MADE THEREOF FOR THE TREATMENT AND PREVENTION OF INFLAMMATORY DISEASES” (priority 1994, dated 2004)

Experiments:
[1] = tested on: hsp65-specific T cell line; assay: T cell proliferation assay, hsp65-specific T cell line; assay type: cell-based, Lewis rats; details: short term lines from ten day hsp65-PLNC, seven days after first restimulation
Protocol: T cell proliferation assays: PLNC were cultured in triplicate in 200 µl flat bottom microtitre wells (Costar) at 2 x 10^5 cells per well with or without antigen. In initial experiments PLNC were tested for responsiveness to individual peptides at concentrations of 5 and 20 µg/ml, and Mt, hsp65 and PPD over a range of concentrations. Concanavalin A (2 µg/ml) was used as a positive control for T cell proliferation. Cultures were incubated for 96 h at 37°C in a humidified atmosphere of 5% CO2. Cultures were pulsed for the final 16 h with [^3H] TdR (Amersham, U.K., 1 uCi/well) and TdR uptake measured using a liquid scintillation β counter. Assays using T cell lines were performed as above using 2 x 10^4 line cells per well with irradiated (30 Gy) syngeneic accessory cells (either 3 x 10^5 splenocytes/well or 10^6 thymocytes/well). Results are expressed as mean counts per minute (cpm) of triplicate cultures. In experiments where responses to Ag were low, responses were considered significant if the stimulation index (S.I. = […]) was greater than two and Student's t tests gave p < 0.01.
T cell lines: T cell lines with specificity for mycobacterial hsp65 or peptides were generated by bulk stimulation of either hsp65-PLNC or Mt-PLNC. PLNC were cultured at 5 x 10^6/ml in culture medium supplemented with 2% normal rat serum (NRS) in the presence of 10 µg/ml Ag. […]

adjuvant arthritis = assay: Adjuvant arthritis (AA) induced with Mt in IFA, clinical arthritis score; assay type: in vivo, Lewis rats; details: 100 µg peptide in DDA, hind footpads, 7 days prior to AA induction with Mt
Protocol: Induction and clinical assessment of experimental arthritis: Arthritis was induced by a single intradermal injection in the base of the tail. AA was induced with 0.5 mg Mt suspended in 100 µl IFA. CP20961 arthritis was induced with 2 mg CP20961 in 100 µl light mineral oil (Sigma). Rats were examined daily for clinical signs of arthritis. Severity of arthritis was assessed by scoring each paw from zero to four based on degree of swelling, erythema and deformity of the joints. Thus the maximum possible arthritis score was 16.
Modulation of arthritis with hsp65 peptides and epitope-specific T cell lines: Synthetic peptides corresponding to eight T cell epitopes present in mycobacterial hsp65 were tested for protective effects on arthritis development. Rats were immunised with 100 µg of individual peptide seven days prior to arthritis induction. Peptides were immunised in each hind footpad in 10 mg/ml DDA (50 µl/pad). Control rats received only PBS/DDA. Epitope-specific T cell lines were also tested for protective activity by intravenous administration of lines at the time of arthritis induction. T cell lines were restimulated in vitro with irradiated spleen APC and specific peptide. Four days later T cell blasts were harvested by ficoll gradient, washed and applied to a second ficoll gradient to remove any contaminating APC. T cells were washed twice in wash medium and twice in PBS and finally suspended at 2.5x10^7/ml in PBS. Immediately prior to injection of Mt, 200 µl (i.e. 5x10^6) T cells were injected i.v. in the tail vein.
The effects of preimmunisation with synthetic peptides containing individual epitopes on the development of AA were analysed (Fig. 7). The eight peptides which primed for epitope specific T cells were tested. Rats were immunised with 100 µg of peptide 7 days prior to AA-induction with Mt.

peptide 176-190: synthetic 15mer of mycobacterial hsp65 containing the AA-associated epitope 180-188
hsp65-specific T cell line response to peptide [1]: strong responses | protection against AA development after peptide preimmunisation (adjuvant arthritis): no effect on AA onset
